# Experimental data published in PubChem BioAssay (NCI).
#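 Cells were grown in 96-well plates and exposed to each compound for 48 hours at five concentrations; endpoints were interpolated linearly between bracketing concentrations, or set to the highest concentration if not reached. The concentration for full growth arrest is given as TGI.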
# Key:
# Assay in all cases: inhibition of tumour cell growth, NCI panel, 48 h
# [1] = system: 786-0 renal
# [2] = system: A549 NSCLC
# [3] = system: ACHN renal
# [4] = system: CAKI-1 renal
# [5] = system: CCRF-CEM leukemia
# [6] = system: COLO 205 colon
# [7] = system: DLD-1 colon
# [8] = system: DMS 273 small cell lung
# [9] = system: EKVX NSCLC
# [10] = system: HCC-2998 colon
# [11] = system: HCT-116 colon
# [12] = system: HCT-15 colon
# [13] = system: HL-60(TB) leukemia
# [14] = system: HOP-18 NSCLC
# [15] = system: HOP-62 NSCLC
# [16] = system: HOP-92 NSCLC
# [17] = system: HT29 colon
# [18] = system: IGROV1 ovarian
# [19] = system: K-562 leukemia
# [20] = system: KM12 colon
# [21] = system: KM20L2 colon
# [22] = system: LOX IMVI melanoma
# [23] = system: LXFL 529 NSCLC
# [24] = system: M14 melanoma
# [25] = system: M19-MEL melanoma
# [26] = system: MALME-3M melanoma
# [27] = system: MOLT-4 leukemia
# [28] = system: NCI-H226 lung
# [29] = system: NCI-H23 lung
# [30] = system: NCI-H460 lung
# [31] = system: NCI-H522 lung
# [32] = system: OVCAR-3 ovarian
# [33] = system: OVCAR-4 ovarian
# [34] = system: OVCAR-5 ovarian
# [35] = system: OVCAR-8 ovarian
# [36] = system: RPMI-8226 leukemia
# [37] = system: RXF 393 renal
# [38] = system: RXF-631 renal
# [39] = system: SF-268 CNS
# [40] = system: SF-295 CNS
# [41] = system: SF-539 CNS
# [42] = system: SK-MEL-2 melanoma
# [43] = system: SK-MEL-28 melanoma
# [44] = system: SK-MEL-5 melanoma
# [45] = system: SK-OV-3 ovarian
# [46] = system: SN12C renal
# [47] = system: SNB-19 CNS
# [48] = system: SNB-78 CNS
# [49] = system: SR leukemia
# [50] = system: SW-620 colon
# [51] = system: TK-10 renal
# [52] = system: U251 CNS
# [53] = system: UACC-257 melanoma
# [54] = system: UACC-62 melanoma
# [55] = system: XF 498 CNS
# [56] = system: A498 renal
# [57] = system: DMS 114 small cell lung
# [58] = system: SNB-75 CNS
# [59] = system: UO-31 renal
smiles,measurement,setting,value
CC(=O)OC1COC(n2c(O)c(N=Nc3ccc([N+](=O)[O-])cc3)c3cc(Br)c([N+](=O)[O-])cc32)C(OC(C)=O)C1OC(C)=O (centres undefined),TGI,[1],> 100 µM
same,TGI,[2],> 100 µM
same,TGI,[3],93.6 µM
same,TGI,[4],> 100 µM
same,TGI,[5],> 100 µM
same,TGI,[6],> 100 µM
same,TGI,[7],> 100 µM
same,TGI,[8],> 100 µM
same,TGI,[9],> 100 µM
same,TGI,[10],> 100 µM
same,TGI,[11],> 100 µM
same,TGI,[12],> 100 µM
same,TGI,[13],> 100 µM
same,TGI,[14],> 100 µM
same,TGI,[15],> 100 µM
same,TGI,[16],78 µM
same,TGI,[17],> 100 µM
same,TGI,[18],70.3 µM
same,TGI,[19],> 100 µM
same,TGI,[20],> 100 µM
same,TGI,[21],> 100 µM
same,TGI,[22],> 100 µM
same,TGI,[23],> 100 µM
same,TGI,[24],> 100 µM
same,TGI,[25],> 100 µM
same,TGI,[26],> 100 µM
same,TGI,[27],> 100 µM
same,TGI,[28],> 100 µM
same,TGI,[29],> 100 µM
same,TGI,[30],> 100 µM
same,TGI,[31],> 100 µM
same,TGI,[32],> 100 µM
same,TGI,[33],> 100 µM
same,TGI,[34],> 100 µM
same,TGI,[35],> 100 µM
same,TGI,[36],> 100 µM
same,TGI,[37],89.8 µM
same,TGI,[38],> 100 µM
same,TGI,[39],> 100 µM
same,TGI,[40],67.1 µM
same,TGI,[41],> 100 µM
same,TGI,[42],> 100 µM
same,TGI,[43],> 100 µM
same,TGI,[44],> 100 µM
same,TGI,[45],> 100 µM
same,TGI,[46],> 100 µM
same,TGI,[47],> 100 µM
same,TGI,[48],75.8 µM
same,TGI,[49],> 100 µM
same,TGI,[50],> 100 µM
same,TGI,[51],> 100 µM
same,TGI,[52],> 100 µM
same,TGI,[53],> 100 µM
same,TGI,[54],36.6 µM
same,TGI,[55],> 100 µM
Cc1cc(Cl)ccc1NC(=O)C1C(=O)C(=O)N(c2ccc(Cl)cc2C)C1=O (centres undefined),TGI,[1],> 100 µM
same,TGI,[56],> 100 µM
same,TGI,[2],> 100 µM
same,TGI,[3],> 100 µM
same,TGI,[4],> 100 µM
same,TGI,[5],> 100 µM
same,TGI,[6],> 100 µM
same,TGI,[7],> 100 µM
same,TGI,[57],68.1 µM
same,TGI,[8],> 100 µM
same,TGI,[9],> 100 µM
same,TGI,[10],> 100 µM
same,TGI,[11],> 100 µM
same,TGI,[12],> 100 µM
same,TGI,[13],> 100 µM
same,TGI,[15],> 100 µM
same,TGI,[16],54.2 µM
same,TGI,[17],> 100 µM
same,TGI,[18],> 100 µM
same,TGI,[19],> 100 µM
same,TGI,[21],> 100 µM
same,TGI,[22],> 100 µM
same,TGI,[23],> 100 µM
same,TGI,[24],> 100 µM
same,TGI,[25],> 100 µM
same,TGI,[26],> 100 µM
same,TGI,[27],> 100 µM
same,TGI,[28],> 100 µM
same,TGI,[29],> 100 µM
same,TGI,[31],> 100 µM
same,TGI,[32],> 100 µM
same,TGI,[33],> 100 µM
same,TGI,[34],> 100 µM
same,TGI,[35],> 100 µM
same,TGI,[36],> 100 µM
same,TGI,[38],> 100 µM
same,TGI,[39],> 100 µM
same,TGI,[40],> 100 µM
same,TGI,[41],> 100 µM
same,TGI,[42],> 100 µM
same,TGI,[43],> 100 µM
same,TGI,[44],> 100 µM
same,TGI,[45],> 100 µM
same,TGI,[46],> 100 µM
same,TGI,[47],68.1 µM
same,TGI,[58],> 100 µM
same,TGI,[48],> 100 µM
same,TGI,[50],> 100 µM
same,TGI,[51],> 100 µM
same,TGI,[52],> 100 µM
same,TGI,[53],> 100 µM
same,TGI,[54],> 100 µM
same,TGI,[59],> 100 µM
O=S(Cc1cnc2ccccc2c1)c1nc2ccccc2nc1-c1cccs1 (centres undefined),TGI,[1],27.3 µM
same,TGI,[2],48.6 µM
same,TGI,[3],26.4 µM
same,TGI,[5],> 100 µM
same,TGI,[6],42 µM
same,TGI,[57],25.8 µM
same,TGI,[8],34.9 µM
same,TGI,[9],25 µM
same,TGI,[11],22.4 µM
same,TGI,[13],72.8 µM
same,TGI,[14],31.7 µM
same,TGI,[16],25 µM
same,TGI,[17],37.1 µM
same,TGI,[18],33.4 µM
same,TGI,[19],> 100 µM
same,TGI,[23],20.8 µM
same,TGI,[24],32.2 µM
same,TGI,[26],37.7 µM
same,TGI,[27],> 100 µM
same,TGI,[28],11.6 µM
same,TGI,[29],35.7 µM
same,TGI,[32],34.7 µM
same,TGI,[33],24.6 µM
same,TGI,[34],28.5 µM
same,TGI,[35],51.7 µM
same,TGI,[36],> 100 µM
same,TGI,[39],39.6 µM
same,TGI,[40],61 µM
same,TGI,[41],32.8 µM
same,TGI,[43],34.9 µM
same,TGI,[45],73 µM
same,TGI,[46],32.8 µM
same,TGI,[47],43.6 µM
same,TGI,[58],39.3 µM
same,TGI,[48],50.7 µM
same,TGI,[52],33.5 µM
same,TGI,[53],31.2 µM
same,TGI,[59],28.3 µM
same,TGI,[55],16.9 µM
Cn1ncc2c(=O)[nH]c(-c3ccccc3)nc21,TGI,[2],> 100 µM
same,TGI,[3],> 100 µM
same,TGI,[4],> 100 µM
same,TGI,[5],> 100 µM
same,TGI,[6],> 100 µM
same,TGI,[7],> 100 µM
same,TGI,[57],> 100 µM
same,TGI,[8],> 100 µM
same,TGI,[9],> 100 µM
same,TGI,[10],> 100 µM
same,TGI,[12],> 100 µM
same,TGI,[13],> 100 µM
same,TGI,[17],> 100 µM
same,TGI,[18],> 100 µM
same,TGI,[19],> 100 µM
same,TGI,[20],> 100 µM
same,TGI,[21],> 100 µM
same,TGI,[22],> 100 µM
same,TGI,[24],> 100 µM
same,TGI,[26],> 100 µM
same,TGI,[27],> 100 µM
same,TGI,[29],> 100 µM
same,TGI,[31],> 100 µM
same,TGI,[33],> 100 µM
same,TGI,[34],> 100 µM
same,TGI,[35],> 100 µM
same,TGI,[36],> 100 µM
same,TGI,[37],> 100 µM
same,TGI,[38],> 100 µM
same,TGI,[39],> 100 µM
same,TGI,[40],> 100 µM
same,TGI,[41],> 100 µM
same,TGI,[42],> 100 µM
same,TGI,[43],> 100 µM
same,TGI,[44],> 100 µM
same,TGI,[45],> 100 µM
same,TGI,[46],> 100 µM
same,TGI,[47],> 100 µM
same,TGI,[58],> 100 µM
same,TGI,[48],> 100 µM
same,TGI,[50],> 100 µM
same,TGI,[51],> 100 µM
same,TGI,[52],> 100 µM
same,TGI,[53],> 100 µM
same,TGI,[54],> 100 µM
same,TGI,[59],> 100 µM
same,TGI,[55],> 100 µM
